{
  "source": "patent US20060057669A1",
  "about": "“Inactive transcription factor tif-ia and uses thereof” (priority 2002, published 2006)",
  "key": {"Pol I transcription [1]": {"tested_on": "Pol I transcription", "experiment": "In vitro transcription: TIF-IA mutants added to nuclear extract from exponentially growing FM3A cells", "type": "biochemical, murine", "settings": "20 and 40 ng added to 15 ug nuclear extract"}, "Pol I transcription [2]": {"tested_on": "Pol I transcription", "experiment": "Pol I reporter plasmid pMrl930-BH co-transfection in NIH3T3 cells, Northern blot", "type": "cell-based", "settings": "0.25, 0.5 or 1 μg expression vector", "procedure": "(C) Phosphorylation by RSK is necessary and sufficient for enhancing TIF-IA activity in vivo. NIH3T3 cells were co-transfected with 3 μg pMrl930-BH and lor 2.5 μg of pMT2-HA-CA-RSK2 (lanes 2, 3). Transcripts from the reporter plasmid were monitored on Northern blots. An ethidium bromide stain of cellular 18S and 28S rRNA is shown below.\n(C) Transcriptional activity of TIF-IAS44A in vivo. NIH3T3 cells were cotransfected with 2.5 μg Pol I reporter plasmid (pMrl930-BH) and 0.25, 0.5 or 1 μg of pcDNA3.1-TIF-IA (lanes 2-4), TIF-IAS44A (lanes 5-7). Transcripts from the reporter plasmid were monitored on Northern blots. The amount of cellular 18S and 28S rRNA is shown below.\nNIH3T3, HEK293T and CLL39 cells were cultured in Dulbecco's modified Eagles medium (DMEM) supplemented with 10% fetal calf serum. Cells were transfected with 5 μg of DNA per 10^6 cells using the calcium phosphate DNA coprecipitation method. Total RNA was isolated after 48 h and analyzed on Northern blots as described (Voit et al., EMBO J. 18 (1999), 1891-1899). Cellular pre-rRNA levels were monitored by hybridization to antisense RNA complementary to the first 155 nucleotides of unprocessed 45S pre-RNA. Transcripts from the rDNA reporter plasmid were monitored by hybridization to a riboprobe that is complementary to pUC sequences inserted between the rDNA promoter and terminator sequences of pMrl930-BH. […]"}, "Pol I transcription [3]": {"tested_on": "Pol I transcription", "experiment": "Complementation of Pol I transcription in nuclear extracts from PD98059-treated FM3A cells", "type": "biochemical", "procedure": "(C) TIF-IA, but not UBF, rescues Pol I transcription in extracts from PD98059-treated cells. Nuclear extracts from untreated or PD98059-treated FM3A cells were supplemented with 20 and 40 ng of purified TIF-IA and/or UBF (10 ng in lanes 7 and 9, 50 ng in lanes 3, 8 and 10).\n(D) TIF-IA activates transcription in extracts from PD98059-treated cells in the presence of AMP-PNP and GMP-PNP. Nuclear extracts from PD98059-treated FM3A cells were supplemented with 40 ng of purified TIF-IA and assayed in the standard transcription system containing ATP and GTP (ATP, lanes 1, 2) or AMP-PNP and GMP-PNP (AMP-PNP, lanes 3, 4)\n(D) ERK/RSK-dependent phosphorylation activates Pol I transcription in vitro. Nuclear extracts from PD98059-treated FM3A cells were supplemented with 40 ng of TIF-IA, 10 ng of HA-RSK, or 10 ng of HA-ERK as indicated, and transcriptional activity was assayed in the standard transcription system containing ATP and GTP (lanes 4-8) or AMP-PNP and GMP-PNP (lanes 9-13).\nNuclear extracts were prepared from exponentially growing (8×10^5 cells/ml), density-arrested or PD98059-treated (CN Bioscience, Bad Soden, Germany) 40 μM, 0.5 hr) or rapamycin-treated FM3A cells (ATCC, Manassas, USA). 25 μl assays contained 50 ng of template DNA (pMr600/EcoRI), 30 μg nuclear extract proteins and 12 mM Hepes-KOH, [pH8.0], 0.1 mM EDTA, 5 mM MgCl2, 80 mM KCl, 10 mM creatine phosphate, 12% (v/v) glycerol, 0.66 mM each of ATP, GTP and CTP, 0.01 mM UTP and 0.5 μCi [α-^32P]UTP (5000 Ci/mmol). After incubation for 60 min at 30° C., RNA was extracted and analyzed on non-denaturing 5% polyacrylamide gels\nTo test whether both TIF-IA and UBF, or TIF-IA alone, were targeted by ERK-mediated phosphorylation, nuclear extracts from untreated and PD98059-treated cells were assayed for rDNA transcription in the absence and presence of exogenous TIF-IA or UBF (FIG. 2C). If both UBF and TIF-IA were inactivated by PD98059, rescue of Pol I transcriptional activity would require both factors, whereas TIF-IA alone would be sufficient if it was the only factor that is inactivated by inhibition of the ERK pathway. […]"}},
  "data": [
    {"substance": "TIF-IA: wild-type human transcription initiation factor TIF-IA, accession No. AJ272050", "values": [
      {"measurement": "effect on transcriptional activity of extracts from exponentially growing cells", "setting": "Pol I transcription [1]", "value": "not stimulated by exogenous TIF-IA"},
      {"measurement": "transcription of the Pol I reporter", "setting": "Pol I transcription [2]", "value": "enhanced transcription of the reporter"},
      {"measurement": "rescue of Pol I transcription in extracts from PD98059-treated cells", "setting": "Pol I transcription [3]; in the presence of AMP-PNP and GMP-PNP", "value": "activation of Pol I transcription by TIF-IA was also observed"},
      {"measurement": "rescue of Pol I transcription in extracts from PD98059-treated cells", "setting": "Pol I transcription [3]; standard transcription system containing ATP and GTP", "value": "rescued"}
    ]}
  ]
}
